Assay results reported in paper PMC3404749 (Molecular Pharmaceutics, 2012).

Legend:
[1] = biological target: T1, expressed human SULT1A3 (Homo sapiens, UniProt P0DMM9); assay: Sulfonation activities of flavonoids in expressed human SULT1A3; type: in vitro ADME; details: for sulfonation rate: pH 7.4, 37°C, n=3; for sulfate detection when SULT1A3 was used: expressed SULT1A3, LC-MS/MS and UPLC
[2] = biological target: T1, expressed human SULT1A3; assay: Kinetics of flavonoid sulfonation by SULT1A3; details: for Km1: SULT1A3, 0.039–20 µM substrate; for Kinetic model: SULT1A3, best-fit model by Eadie-Hofstee plot and AIC; for Ksi (substrate inhibition constant): SULT1A3, substrate inhibition model
[3] = biological target: SULT1A3 (Homo sapiens, UniProt P0DMM9); assay: Kinetics of flavonoid sulfonation by SULT1A3; details: human
[4] = expressed SULT1A3, substrate concentration 2.5 µM
[5] = expressed SULT1A3, substrate concentration 10 µM

T1 sequence (P0DMM9 whole entry): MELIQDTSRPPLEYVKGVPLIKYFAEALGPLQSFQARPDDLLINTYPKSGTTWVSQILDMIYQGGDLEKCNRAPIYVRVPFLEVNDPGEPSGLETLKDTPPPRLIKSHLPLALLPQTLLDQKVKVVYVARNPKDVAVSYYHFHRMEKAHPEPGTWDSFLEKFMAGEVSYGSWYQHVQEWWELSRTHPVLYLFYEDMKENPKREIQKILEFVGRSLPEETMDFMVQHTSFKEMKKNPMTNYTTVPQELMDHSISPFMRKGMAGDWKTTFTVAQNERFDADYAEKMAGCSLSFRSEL
Sequence of SULT1A3 (P0DMM9 whole entry): as above

O=C1C[C@@H](c2ccc(O)cc2)Oc2cc(O)cc(O)c21 [naringenin, Naringenin]
sulfonation rate [1, 4]: 3.21 ± 0.36 nmol/hr/mg protein | sulfonation rate [1, 5]: 12.03 ± 0.94 nmol/hr/mg protein

O=c1c(O)c(-c2ccccc2)oc2cc(O)ccc12 [3,7DHF, 3,7-Dihydroxyflavone]
Vmax-1/ Km1 ([2]; SULT1A3): 43000 µL/min/mg | Km1 [2]: 1.85 µM | Kinetic model [2]: Sigmoidal kinetics of Hill equation | sulfonation rate [1, 4]: 45.84 ± 1.53 nmol/hr/mg protein | sulfonation rate [1, 5]: 74.69 ± 1.05 nmol/hr/mg protein

O=c1cc(-c2ccc(O)cc2)oc2cc(O)ccc12 [7,4’DHF, 7,4'-Dihydroxyflavone]
Km1 [2]: 3.42 µM | Kinetic model [2]: Substrate inhibition | Ksi (substrate inhibition constant) [2]: 13.81 | sulfonation rate [1, 4]: 7.54 ± 0.34 nmol/hr/mg protein | sulfonation rate [1, 5]: 10.30 ± 1.64 nmol/hr/mg protein

O=c1c(-c2ccc(O)cc2)coc2cc(O)cc(O)c12 [genistein, Genistein]
sulfate detection when SULT1A3 was used [1]: not detected | sulfonation rate [1, 4]: 0 nmol/hr/mg protein | sulfonation rate [1, 5]: 0 nmol/hr/mg protein

O=c1cc(-c2ccccc2)oc2cccc(O)c12 [5HF, 5-Hydroxyflavone]
sulfate detection when SULT1A3 was used [1]: not detected | sulfonation rate [1, 4]: 0 nmol/hr/mg protein

O=c1c(O)c(-c2ccc(O)cc2)oc2cc(O)cc(O)c12 [kaempferol, 3,5,7,4’tetrahydroxyflavone]
sulfonation rate [1, 4]: 3.78 ± 0.79 nmol/hr/mg protein | sulfonation rate [1, 5]: 5.77 ± 0.22 nmol/hr/mg protein

O=c1c(O)c(-c2ccccc2)oc2cc(O)cc(O)c12 [3,5,7THF, 3,5,7-Trihydroxyflavone]
sulfonation rate [1, 4]: 13.88 ± 1.21 nmol/hr/mg protein | sulfonation rate [1, 5]: 24.98 ± 0.49 nmol/hr/mg protein

O=c1cc(-c2ccc(O)cc2)oc2cc(O)cc(O)c12 [apigenin, 5,7,4'-Trihydroxyflavone]
sulfonation rate [1, 4]: 19.00 ± 1.58 nmol/hr/mg protein | sulfonation rate ([1]; expressed SULT1A3, substrate concentration 2.5 µM, listed as 5,7,4'THF): 19.00±1.58 nmol/hr/mg protein | sulfonation rate [1, 5]: 19.36 ± 0.41 nmol/hr/mg protein

O=c1cc(-c2ccc(O)cc2)oc2ccccc12 [4’HF, 4'-Hydroxyflavone]
sulfate detection when SULT1A3 was used [1]: not detected | sulfonation rate [1, 4]: 0 nmol/hr/mg protein

O=c1c(O)c(-c2ccc(O)cc2)oc2ccccc12 [3,4’DHF, 3,4'-Dihydroxyflavone]
sulfate detection when SULT1A3 was used [1]: not detected | sulfonation rate [1, 4]: 0 nmol/hr/mg protein | sulfonation rate [1, 5]: 0 nmol/hr/mg protein

O=c1cc(-c2ccccc2)oc2cc(O)ccc12 [7HF, 7-Hydroxyflavone]
Km1 [2]: 2.80 µM | Kinetic model [2]: substrate inhibition kinetics | Ksi (substrate inhibition constant) [2]: 23.12 | microsomal CLint [3]: 30400 µL/min/mg | sulfonation rate [1, 4]: 35.66 ± 4.72 nmol/hr/mg protein | sulfonation rate [1, 5]: 48.92 ± 5.18 nmol/hr/mg protein

O=c1cc(-c2ccccc2)oc2cc(O)cc(O)c12 [5,7DHF, 5,7-Dihydroxyflavone]
Km1 [2]: 2.73 µM | Kinetic model [2]: Biphasic kinetics | Vmax-2 (biphasic) ([2]; SULT1A3, biphasic kinetics): 17.38 nmol/min/mg | Km2 ([2]; SULT1A3, biphasic kinetics, low-affinity phase): 1e-06 mM | sulfonation rate [1, 4]: 62.30 ± 2.54 nmol/hr/mg protein | sulfonation rate [1, 5]: 85.37 ± 1.53 nmol/hr/mg protein

O=c1c(O)c(-c2ccccc2)oc2ccccc12 [3HF, 3-Hydroxyflavone]
sulfate detection when SULT1A3 was used [1]: not detected | sulfonation rate [1, 4]: 0 nmol/hr/mg protein | sulfonation rate [1, 5]: 0 nmol/hr/mg protein

O=C(CCc1ccc(O)cc1)c1c(O)cc(O)cc1O [phloretin, Phloretin]
sulfonation rate [1, 4]: 0 nmol/hr/mg protein | sulfonation rate [1, 5]: 0 nmol/hr/mg protein

O=c1c(O)c(-c2ccc(O)cc2)oc2cc(O)ccc12 [3,7,4'THF, 3,7,4'-Trihydroxyflavone]
sulfonation rate [1, 4]: 6.80 ± 1.28 nmol/hr/mg protein | sulfonation rate [1, 5]: 11.79 ± 0.33 nmol/hr/mg protein
